Laboratory results reported in US8618286B2, “Benzoxazines, benzothiazines, and related compounds having NOS inhibitory activity” (NeurAxon, Inc., priority 2008, dated 2013).

What was measured:
[1] = tested on: dural inflammation model of migraine; experiment: Dural inflammation rat model of migraine; format: in vivo; conditions: rats, 3 mg/kg p.o., about 15 min pre-IS, measured up to 6 hours post IS
Method: These features mimic the characteristic often seen in migraineurs during a headache, especially when treatment is delayed, and the development of central sensitization has occurred (Burstein et al., Ann. Neurol. 47:614-624, 2000; Burstein et al., Brain, 123:1703-1709, 2000). Compound (8) was tested in a dural inflammation model of migraine according to previously described procedures (WO 2007/120830 or as described in US-2008-0031822-A1). Baseline paw withdrawal thresholds were recorded approximately 30 min before the IS administration by application of calibrated von Frey filaments to the hindpaws to measure tactile allodynia. Approximately 15 minutes pre-IS administration, the test compound in water was administered by oral gavage (1 mL/kg) at a dose of 3 mg/kg per os (p.o.). Measurements of tactile allodynia were recorded at 1 hour intervals up to 6 hours post IS administration.

[2] = molecular target: Nitric oxide synthase (endothelial, human recombinant) eNOS (Homo sapiens (Human), UniProt P29474); experiment: Human eNOS enzyme assay ([3H]-L-arginine to L-citrulline conversion); format: biochemical
Method: nNOS (Human), eNOS (Human) and iNOS (Human) Enzyme Assay
Primary stock solutions of test compounds at a concentration of 6 mM were prepared from the 2 to 5 mg powder. The primary stock solutions of each test compound were prepared freshly in distilled water on the day of study to obtain a final concentration of 6 mM. For determination of IC50 values, 12 test compound concentrations were prepared as 3-fold serial dilutions. Concentration range of test compound utilized for nNOS were 0.001 to 300 μM and for eNOS were 0.003 to 1000 μM. The vehicle of the test compound or inhibitor was used as blank control. For non-specific activity, 100 μM L-NMMA was used. Runs using the IC50 concentration of L-NAME were done in parallel as controls.
All incubations are performed in duplicate
The reaction mixture was prepared on ice by adding the following components with a micropipette to a polypropylene microcentrifuge tube: • 10 μL of test compound, inhibitor or control (vehicle or L-NMMA) solution; • 25 μL of Reaction Buffer {25 mM Tris-HCl, 0.6 μM BH4, 0.2 μM FMN, 0.2 μM FAD}; • 5 μL of 10 mM NADPH solution {1 mM} (freshly prepared in 10 mM Tris-HCl (pH 7.4); • 5 μL of 6 mM CaCl2 {600 W}; • 5 μL of 1 mM Calmodulin {100 W}; and • 5 μL of 0.02 μg/μL nNOS or 0.12 μg/μL eNOS.
The above reaction mixture was pre-incubated at room temperature for 15 mins.
The reaction was started by the addition of the substrate (in 5 μL containing 1 μCi of [^3H]-L-Arginine+2.5 μM of unlabeled L-Arginine) to the reaction mixture. Total reaction volume is 60 μL.
The reaction was mixed using a vortex mixer and incubate the above reaction mixture at 37° C. in an incubator for 30 minutes.
To stop the reaction, 400 μL of ice-cold Stop Buffer was added at the end of the incubation period.
The reaction was then mixed using a vortex mixer, and the reaction samples were transferred to spin cups, which were centrifuged using a microcentrifuge, at 13,000 rpm for 30 sec. at room temperature.
The spin cups were removed from the holder, 450 μL of eluate (containing the unbound L-citrulline) were transferred to scintillation vials. 3 mL of scintillation fluid were added and the radioactivity was quantified in a liquid scintillation counter.
Data was analyzed using a Sigmoidal dose-response (variable slope) curve to determine the IC50 value of the test compound. Y=Bottom+(Top−Bottom)/(1+10^((Log IC50−X)*Hill Slope))

[3] = tested on: L5/L6 spinal nerve ligation model of neuropathic pain (Chung model); experiment: Chung L5/L6 spinal nerve ligation model of neuropathic pain; format: in vivo, rat; conditions: rats, L5/L6 SNL
Method: The L5/L6 spinal nerve was surgically ligated and animals allowed to recover for a period of 7-10 days. During this period animals develop neuropathic pain. The reduction of paw withdrawal latency after an infrared thermal stimulus (post-SNL) was measured following the induction period for comparison with pre-surgery baseline levels (BL). Following drug administration, thermal hyperalgesia was measured at various time points.
The L5/L6 spinal nerve was surgically ligated and animals allowed to recover for a period of 7-10 days. During this period animals develop neuropathic pain. The reduction of tactile thresholds (post-SNL) was measured following the induction period for comparison with pre-surgery baseline levels (BL). Following drug administration, tactile allodynia was measured at various time points with calibrated von-Frey filaments.
The experimental designs for the Chung Spinal Nerve Ligation SNL Model assay for neuropathic pain are depicted in FIGS. 1 and 2. Nerve ligation injury was performed according to the method described by Kim and Chung (Kim and Chung, Pain 50:355-363, 1992). This technique produces signs of neuropathic dysesthesias, including tactile allodynia, thermal hyperalgesia, and guarding of the affected paw. Rats were anesthetized with halothane, and the vertebrae over the L4 to S2 region were exposed. […]

SMILES: CNCCN1CCSc2cc(NC(=N)c3cccs3)ccc21 [Compound 8, N-(4-(2-(methylamino)ethyl)-3,4-dihydro-2H-benzo[b][1,4]thiazin-7-yl)thiophene-2-carboximidamide]
- antiallodynic effect (tactile allodynia, hindpaw) [1]: antiallodynic effect
- IC50 [2]: 33.5 µM
- reversal of tactile allodynia ([3]; i.p. 30 mg/kg, von Frey filaments): reversal of tactile allodynia
- reversal of thermal hyperalgesia ([3]; i.p., text: e.g. 3 mg/kg, FIG. 3 legend: 30 mg/kg): clear effect
